From US20120171123A1, “USES AND COMPOSITIONS FOR TREATMENT OF RHEUMATOID ARTHRITIS” (priority 2006, published 2012)
Marks after values point to notes of the source that are not given here.

Key:
Format in all cases: in vivo, human
patients with active RA = test: Study A in France: AIMS2-SF quality of life; conditions: for AIMS2-SF Work component score: working patients only
From the text: Efficacy of a treatment for rheumatoid arthritis can be determined by comparing AIMS2-SF scores given by subjects having rheumatoid arthritis. The AIMS2-SF is a shorter version of the AIMS2 (i.e., available in 2-page format) and has psychometric properties similar to those of the AIMS2 (see Guillemin et al. (1997) Arthritis Rheum. 40(7):1267).
Unsatisfactory response or intolerance to at least one prior DMARD was required for enrollment in Study A. A 12-week study period was followed by an optional extension phase, with an efficacy assessment performed at Weeks 2, 6, 12, 20, and every eight weeks thereafter. Patients discontinued the study when they stopped receiving adalimumab or when […].
The HAQ and the Arthritis Impact Measurement Scale Short Form (AIMS2-SF) are both extensively validated health-related quality-of-life outcome measures in RA (Guillemin et al. Arth Rheum 1997; 40(7):1267-1274). Both measures have been proven useful in cohort studies and clinical trials (Guillemin et al). The HAQ and the AIMS2-SF are effective in detecting both long-term and short-term health status changes (Guillemin et al). In France, Study A patients completed the French AIMS2-SF, a tool that measures disease impact on physical function and overall quality-of-life in five components. Study A began in France began in December 2002. Completion of the AIMS2-SF at Study Entry Visit 1, Week 12, and Week 28 (if patient participated in the continuation period) was a component added in March 2003 as a France-specific amendment to the study protocol. Because AIMS2-SF was introduced later into the study, the number of French patients answering the AIMS2-SF is smaller than the overall French Study A population
A total of 266 patients out of 1,002 Study A patients in France completed the AIMS2-SF. AIMS2-SF responders recorded a significant improvement in quality-of-life.

[1] = test system: patients with long-standing RA; test: Study 4: tender and swollen joint counts
Method: At the last visit, 24% of participants had 0 tender joints and 21% of participants had 0 swollen joints.
Efficacy outcomes were evaluated as observed data: DAS28; ACR 20/50/70; Tender Joint Count (TJC); Swollen Joint Count (SJC); and HAQ Disability Index. Baseline demographics and disease characteristics were similar in both Study 4 and Study 5 consistent with moderate to severe RA, as shown below in Table 64: […]

[2] = test system: patients with moderate to severe rheumatoid arthritis; test: Study C: medically relevant adverse events
Method: The Canadian Adalimumab Clinical Trial (Study C) was an open-label, multi-center, Phase IIIb study conducted in Canada. […] Efficacy and safety were assessed at baseline, 4, 8, and 12 weeks. Efficacy assessments included tender joint count (TJC 0-28), swollen joint count (SJC 0-28), Disease Activity Score 28 (DAS28), Health Assessment Questionnaire (HAQ), and EULAR response. […] The sample size for each outcome variable is based on the data available at the time of the analysis. The data from this preliminary analysis were compared with the Week 12 data from Study A (N=2008).

[3] = Baseline to Week 12, mean of individual patient differences

adalimumab: human anti-TNF mAb (HUMIRA, Abbott Laboratories), described in U.S. Pat. No. 6,090,382 as D2E7
AIMS2-SF Afect component score (patients with active RA; Baseline): 4.7 | AIMS2-SF Physical component score (patients with active RA; Baseline): 3.9 | AIMS2-SF Social component score (patients with active RA; Baseline): 5.3 | AIMS2-SF Symptom component score (patients with active RA; Baseline): 6.7 | AIMS2-SF Physical component, % Change (patients with active RA; [3]): −25.0^§ % | AIMS2-SF Social component, % Change (patients with active RA; [3]): 1.6% | AIMS2-SF Social component, Mean Change (patients with active RA; [3]): −0.1 | AIMS2-SF Symptom component, % Change (patients with active RA; [3]): −43.4^§ % | AIMS2-SF Symptom component, Mean Change (patients with active RA; [3]): −3.2^§ | AIMS2-SF Work component score (patients with active RA; Baseline): 4.2 | AIMS2-SF Work component score (patients with active RA; Week 12): 3.3 | AIMS2-SF Afect component score (patients with active RA; week 12): 3.6 | AIMS2-SF Physical component score (patients with active RA; week 12): 2.9 | AIMS2-SF Social component score (patients with active RA; week 12): 5.3 | AIMS2-SF Symptom component score (patients with active RA; week 12): 3.5 | SJC (0-66), % change of mean clinical improvement from baseline ([1]; 6 months): 58% | TJC (0-68), % change of mean clinical improvement from baseline ([1]; 6 months): 64% | SJC (0-66), % change of mean clinical improvement from baseline ([1]; 12 months): 67% | TJC (0-68), % change of mean clinical improvement from baseline ([1]; 12 months): 69% | SJC (0-66), % change of mean clinical improvement from baseline ([1]; 24 months): 69% | TJC (0-68), % change of mean clinical improvement from baseline ([1]; 24 months): 72% | SJC (0-66), % change of mean clinical improvement from baseline ([1]; 36 months): 68% | TJC (0-68), % change of mean clinical improvement from baseline ([1]; 36 months): 75% | SJC (0-66), % change of mean clinical improvement from baseline ([1]; 48 months): 61% | TJC (0-68), % change of mean clinical improvement from baseline ([1]; 48 months): 78% | median number of swollen joints ([1]; end of four years): 3 | median number of tender joints ([1]; end of four years): 2 | participants with 0 swollen joints ([1]; last visit (n=846 analysis)): 21% | participants with 0 tender joints ([1]; last visit (n=846 analysis)): 24% | Infections: Influenza, number ([2]; Study C (n=879)): Influenza (1) | Infections: Pneumonia, number ([2]; Study C (n=879)): Pneumonia (3) | Infections: Post-operative infections, number ([2]; Study C (n=879)): infections (3) | Infections: Pyelonephritis, number ([2]; Study C (n=879)): Pyelonephritis (1) | Infections: Sinusitis, number ([2]; Study C (n=879)): Sinusitis (1) | Medically relevant adverse events: Congestive heart failure, % ([2]; Study C (n=879)): 0.1% | Medically relevant adverse events: Congestive heart failure, number ([2]; Study C (n=879)): 1 | Infections: Atypical infection (nodules), number ([2]; in vivo): (nodules) (1) | Infections: Infected prosthesis, number ([2]; in vivo): Infected prosthesis (1) | Medically relevant adverse events: Infections, % ([2]; in vivo): 1.3% | Medically relevant adverse events: Infections, number ([2]; in vivo): 11 | Medically relevant adverse events: Malignancies, % ([2]; in vivo): 0.2% | Medically relevant adverse events: Malignancies, number ([2]; in vivo): 2
